# Measured values reported in patent US9637469B2, “Pyridine derivative” (Teijin Pharma Limited, priority 2012, dated 2017).
# Target: T1, human URAT1 (Homo sapiens, UniProt Q96S37)
# T1 construct: Full-length cDNA of human URAT1 (hURAT1)
# T1 sequence (Q96S37 1-553): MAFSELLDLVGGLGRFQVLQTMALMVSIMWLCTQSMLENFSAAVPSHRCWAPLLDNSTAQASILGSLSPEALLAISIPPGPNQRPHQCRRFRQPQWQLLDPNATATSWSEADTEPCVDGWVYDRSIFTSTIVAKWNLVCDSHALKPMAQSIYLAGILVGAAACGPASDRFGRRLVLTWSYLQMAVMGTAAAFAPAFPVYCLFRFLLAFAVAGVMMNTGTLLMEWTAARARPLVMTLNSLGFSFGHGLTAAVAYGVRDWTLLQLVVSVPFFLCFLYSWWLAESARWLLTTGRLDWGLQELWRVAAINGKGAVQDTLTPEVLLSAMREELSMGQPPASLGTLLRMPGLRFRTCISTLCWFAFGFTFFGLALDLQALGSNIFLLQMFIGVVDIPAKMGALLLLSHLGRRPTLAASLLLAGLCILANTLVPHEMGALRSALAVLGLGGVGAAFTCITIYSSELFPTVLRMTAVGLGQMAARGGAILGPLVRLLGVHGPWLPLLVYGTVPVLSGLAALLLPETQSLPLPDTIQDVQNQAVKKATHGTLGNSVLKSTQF
# Test: Test for inhibition of uric acid transport using human URAT1-expressing cells;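 also: three stars up to 0.2 µM two stars 0.2-2 µM one star 2-20 µM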
# Assay type: cell-based
# Conditions: HEK 293 cells expressing human URAT1; 14C-labeled uric acid 25 μM; uptake 37° C. for 5 min
# Summary of the method: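 IC50 values reflect inhibition of ¹⁴C-uric acid uptake (25 μM final, 5 min, 37 °C) by compound. Cells were HEK293 stably expressing full-length human URAT1, preincubated in Na-gluconate-substituted HBSS. Radioactivity in lysates was expressed relative to DMSO control as 100%.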
row,Structure (SMILES),Inhibitory Activity (IC50 of uric acid transport inhibition)
1,"COc1cccc(-c2nc(C)c(C(=O)O)n2Cc2cc(Cl)ccc2Cl)n1 [Compound A246, 1-(2,5-dichlorobenzyl)-2-(6-methoxypyridin-2-yl)-4-methyl-1H-imidazole-5-carboxylic acid]",* *
2,"Cc1nc(-c2cncc(F)c2)n(Cc2cccc3ccsc23)c1C(=O)O [Compound A234, 1-(benzo[b]thiophen-7-ylmethyl)-2-(5-fluoropyridin-3-yl)-4-methyl-1H-imidazole-5-carboxylic acid]",* *
3,"Cc1nc(-c2cccnc2)n(Cc2cccc(Cl)c2Cl)c1C(=O)O [Compound A70, 1-(2,3-dichlorobenzyl)-4-methyl-2-(pyridin-3-yl)-1H-imidazole-5-carboxylic acid]",* *
4,"O=C(NS(=O)(=O)C1CC1)c1ccc(-c2cccnc2)n1Cc1cc(Cl)ccc1Cl [Compound B31, N-(cyclopropylsulfonyl)-1-(2,5-dichlorobenzyl)-2-(pyridin-3-yl)-1H-pyrrole-5-carboxamide]",* * *
5,"Cc1nc(Oc2ccccn2)n(Cc2cc(Cl)ccc2Cl)c1C(=O)O [Compound A247, 1-(2,5-dichlorobenzyl)-4-methyl-2-(pyridin-2-yloxy)-1H-imidazole-5-carboxylic acid]",* *
6,"Cc1cncc(-c2ccc(C(=O)O)n2Cc2cc(Cl)ccc2Cl)c1 [Compound B13, 1-(2,5-dichlorobenzyl)-2-(5-methylpyridin-3-yl)-1H-pyrrole-5-carboxylic acid]",* * *
7,"Cc1cncc(-c2nc(C)c(C(=O)O)n2Cc2cc(C)ccc2C)c1 [Compound A180, 1-(2,5-dimethylbenzyl)-4-methyl-2-(5-methylpyridin-3-yl)-1H-imidazole-5-carboxylic acid]",* * *
8,"O=C(O)c1c(-c2cccc(F)c2)nc(-c2cccnc2)n1Cc1cc(Cl)ccc1Cl [Compound A92, 1-(2,5-dichlorobenzyl)-4-(3-fluorophenyl)-2-(pyridin-3-yl)-1H-imidazole-5-carboxylic acid]",* * *
9,"O=C(O)c1c(Br)nc(-c2cccnc2)n1Cc1cc(Cl)ccc1Cl [Compound A89, 4-bromo-1-(2,5-dichlorobenzyl)-2-(pyridin-3-yl)-1H-imidazole-5-carboxylic acid]",* * *
10,"Cc1cncc(-c2nc(C)c(C(=O)O)n2Cc2cc(Cl)sc2Cl)c1 [Compound A227, 1-((2,5-dichlorothiophen-3-yl)methyl)-4-methyl-2-(5-methylpyridin-3-yl)-1H-imidazole-5-carboxylic acid]",* * *
11,"Cc1cncc(Oc2nc(C)c(C(=O)O)n2Cc2cc(Cl)ccc2Cl)c1 [Compound A255, 1-(2,5-dichlorobenzyl)-4-methyl-2-((5-methylpyridin-3-yl)oxy)-1H-imidazole-5-carboxylic acid]",* * *
12,"Cc1nc(-c2cncc(C(F)F)c2)n(Cc2cc(Cl)ccc2Cl)c1C(=O)O [Compound A208, 1-(2,5-dichlorobenzyl)-2-(5-(difluoromethyl)pyridin-3-yl)-4-methyl-1H-imidazole-5-carboxylic acid]",* * *
13,"Cc1cncc(-c2ccc(C(=O)O)n2Cc2cccc3ccsc23)c1 [Compound B21, 1-(benzo[b]thiophen-7-ylmethyl)-2-(5-methylpyridin-3-yl)-1H-pyrrole-5-carboxylic acid]",* * *
14,"Cc1ccc(C)c(Cn2c(-c3ccncc3)nc(C)c2C(=O)O)c1 [Compound A238, 1-(2,5-dimethylbenzyl)-4-methyl-2-(pyridin-4-yl)-1H-imidazole-5-carboxylic acid]",* *
15,"O=C(O)c1c(C(F)(F)F)nc(-c2cccnc2)n1Cc1csc2ccccc12 [Compound A22, 1-(benzo[b]thiophen-3-ylmethyl)-2-(pyridin-3-yl)-4-(trifluoromethyl)-1H-imidazole-5-carboxylic acid]",* *
16,"CC(C)c1nc(-c2cccnc2)n(Cc2csc3cccc(Br)c23)c1C(=O)O [Compound A38, 1-((4-bromobenzo[b]thiophen-3-yl)methyl)-4-isopropyl-2-(pyridin-3-yl)-1H-imidazole-5-carboxylic acid]",* * *
17,"CC(O)c1nc(-c2cncc(Cl)c2)n(Cc2cc(Cl)ccc2Cl)c1C(=O)O (centres unmarked) [Compound A211, 2-(5-chloropyridin-3-yl)-1-(2,5-dichlorobenzyl)-4-(1-hydroxyethyl)-1H-imidazole-5-carboxylic acid]",* * *
18,"Cc1nc(-c2ccncc2)n(Cc2cc(Cl)ccc2Cl)c1C(=O)O [Compound A244, 1-(2,5-dichlorobenzyl)-4-methyl-2-(pyridin-4-yl)-1H-imidazole-5-carboxylic acid]",* *
19,"CCc1cncc(-c2nc(C)c(C(=O)O)n2Cc2cc(Cl)ccc2Cl)c1 [Compound A181, 1-(2,5-dichlorobenzyl)-2-(5-ethylpyridin-3-yl)-4-methyl-1H-imidazole-5-carboxylic acid]",* * *
20,"COc1ccc(-c2nc(C)c(C(=O)O)n2Cc2cc(Cl)ccc2Cl)cn1 [Compound A161, 1-(2,5-dichlorobenzyl)-2-(6-methoxypyridin-3-yl)-4-methyl-1H-imidazole-5-carboxylic acid]",* *
21,"COc1cncc(-c2nc(C)c(C(=O)O)n2Cc2cc(Cl)ccc2Cl)c1 [Compound A157, 1-(2,5-dichlorobenzyl)-2-(5-methoxypyridin-3-yl)-4-methyl-1H-imidazole-5-carboxylic acid]",* * *
22,"CS(=O)(=O)N1CCN(Cc2nc(-c3cncc(Cl)c3)n(Cc3cc(Cl)ccc3Cl)c2C(=O)O)CC1 [Compound A203, 2-(5-chloropyridin-3-yl)-1-(2,5-dichlorobenzyl)-4-((4-(methylsulfonyl)piperazin-1-yl)methyl)-1H-imidazole-5-carboxylic acid]",* *
23,"CC(C)(O)c1nc(-c2cncc(F)c2)n(Cc2cc(Cl)ccc2Cl)c1C(=O)O [Compound A212, 1-(2,5-dichlorobenzyl)-2-(5-fluoropyridin-3-yl)-4-(2-hydroxypropan-2-yl)-1H-imidazole-5-carboxylic acid]",* * *
24,"Cc1nc(-c2cncc(OCc3ccccc3)c2)n(Cc2cc(Cl)ccc2Cl)c1C(=O)O [Compound A190, 2-(5-(benzyloxy)pyridin-3-yl)-1-(2,5-dichlorobenzyl)-4-methyl-1H-imidazole-5-carboxylic acid]",* *
25,"O=C(O)c1c(C(F)(F)F)nc(-c2cccnc2)n1Cc1cccc2ccsc12 [Compound A84, 1-(benzo[b]thiophen-7-ylmethyl)-2-(pyridin-3-yl)-4-(trifluoromethyl)-1H-imidazole-5-carboxylic acid]",* *
26,"CCCOc1cncc(-c2nc(C)c(C(=O)O)n2Cc2cc(Cl)ccc2Cl)c1 [Compound A185, 1-(2,5-dichlorobenzyl)-4-methyl-2-(5-propoxypyridin-3-yl)-1H-imidazole-5-carboxylic acid]",* * *
27,"Cc1ccc(C)c(Cn2c(C(=O)O)ccc2-c2cccnc2)c1 [Compound B12, 1-(2,5-dimethylbenzyl)-2-(pyridin-3-yl)-1H-pyrrole-5-carboxylic acid]",* * *
28,"Cc1nc(-c2cncc(Cl)c2)n(Cc2sc(Cl)cc2Cl)c1C(=O)O [Compound A229, 2-(5-chloropyridin-3-yl)-1-((2,4-dichlorothiophen-5-yl)methyl)-4-methyl-1H-imidazole-5-carboxylic acid]",* *
29,"CC(C)c1nc(-c2cccnc2)n(Cc2cccc3ccsc23)c1C(=O)O [Compound A83, 1-(benzo[b]thiophen-7-ylmethyl)-4-isopropyl-2-(pyridin-3-yl)-1H-imidazole-5-carboxylic acid]",* *

# Same assay, conditions: HEK 293 cells expressing human URAT1; 14C-labeled uric acid 25 μM; uptake 37° C. for 5 min; read-out: Inhibitory Activity (IC50 of uric acid transport inhibition)
row,Structure (SMILES),IC50 [µM]
1,NCc1nc(-c2cncc(Cl)c2)n(Cc2cc(Cl)ccc2Cl)c1C(=O)O [Compound A201],2 to 20
2,Cc1nc(-c2cccnc2)n(Cc2cccc(OC(F)(F)F)c2)c1C(=O)O [Compound A63],2 to 20
3,Cc1nc(-c2cccnc2)n(Cc2c(F)cccc2Cl)c1C(=O)O [Compound A72],2 to 20
4,Cc1nc(-c2cccnc2)n(Cc2csc3cccc(C)c23)c1C(=O)O [Compound A5],2 to 20
5,Cc1nc(-c2cccnc2)n(Cc2cccc3ccsc23)c1C(=O)NS(C)(=O)=O [Compound A115],2 to 20
6,O=C(O)c1cnc(-c2cccnc2)n1Cc1cccc2ccccc12 [Compound A12],2 to 20
